| Structure (SMILES) | melting point [°C] |
| --- | --- |
| CCOCc1nc2c(N)ncc(C)c2n1CCCCNS(C)(=O)=O | 173 to 175 |
| CC(=O)c1ccc(C=CC(=O)N2CCc3c([nH]c4ccccc34)C2c2ccc3c(c2)OCO3)cc1O (centres undefined) | 217 to 218 |
| CC(=O)O[C@H]1CS[C@H](COC(=O)c2ccccc2)O1 (relative stereo) | 67 to 68 |
| CC(c1ccc(-c2ccccc2F)cc1)S(=O)(=O)CC(=O)O (centres undefined) | 144 to 146 |
| Cc1nc(C(O)(c2ccsc2)C(F)(F)F)sc1C (centres undefined) | 90 to 92 |
| CC1(C)COP(=O)(OC(C#N)c2cccc(Oc3ccccc3)c2)OC1 (centres undefined) | 140 |
| CON(C)C(=O)c1cc(-n2c(=O)cc(C(F)(F)F)n(C)c2=O)c(F)cc1Cl | 158 |
| CCCCCCCCCCOc1ccccc1C(N)=O | 58 to 59 |
| Cc1c(C(=O)O)ccc(Cl)c1Cl | 174 to 175 |
| CC1(C(O)(Cc2ccccc2Cl)Cn2cncn2)CCCC1 (centres undefined) | 110 |
| CC(C)C1SCC(=O)CC1=O (centres undefined) | 71 |
| CCOC(=O)/C=C(\C)Cl | 58 to 60 |
| CC(C)(C)OC(=O)NC1CCCCCC=CC2CC2(C(=O)NS(=O)(=O)C2CC2)NC(=O)C2CC(OC(=O)c3ccc4ccccc4c3)CN2C1=O (centres undefined) | 156 to 158 |
| O=[N+]([O-])c1ccc2c3c([nH]c2c1)CCCCCC3 | 119 to 120 |
| Cc1ccc2c(c1)[C@@H]1CN(C)CC[C@@H]1CC2=O (relative stereo) | > 250 |
| CCOC(=O)c1cc(Cl)ccc1N | 80 |
| COc1c2c(c(OC)c(OC)c1OC)CCC(=O)CC2 | 77 to 78 |
| CCCN=C(N)Nc1ccnc(CCCCC(N)=O)n1 | 212 to 214 |
| CCOC(=O)c1ccc(N(C)C)cc1C(=O)OCC | 62 to 64 |
| CC(C)(C)OC(=O)N1CCC(CCN2C(=O)C3(COc4cc5c(cc43)OCO5)c3ccccc32)CC1 (centres undefined) | 173 to 175 |
| O=CNC1Cc2ccccc2C1 | 72 to 74 |
| C=C1COc2ccc(C(C)=O)cc2C(S(=O)(=O)c2ccccc2)C1 (centres undefined) | 124 to 125 |
| Cc1cc(Cl)cc(C(=O)NC2(C)CSC2)c1NC(=O)c1cc(C(F)(F)F)nn1-c1ncccc1Cl | 238 to 241 |
| COCCCOc1cc(C[C@@H](CBr)C(C)C)ccc1OC | 52 to 53 |

| Structure (SMILES) | melting point [°C] |
| --- | --- |
| Cc1cc(Cl)nc2nc(N3C(=O)c4ccccc4C3CC(=O)N3CCC4(CC3)OCCO4)ccc12 (centres undefined) | 259 to 262 |
| COc1ccc(C=CC(=O)O)cc1-c1cc2c(cc1OCCCCCCCC(=O)OC(C)(C)C)C(C)(C)CCC2(C)C | 126 to 128 |
| OCCOCCn1c(NC2CCNCC2)nc2ccccc21 | 164 |
| CCCC1OCc2c(O)c(C)nc(Cl)c21 (centres undefined) | 242 |
| O=C(O)Cc1cc(Br)c(-c2ccc(Cl)cc2)s1 | 136 to 137 |
| C[Si](C)(C)C#Cc1cnc(C(F)(F)F)nc1 | 75.5 to 76 |
| O=C(Nc1ccc(OC(F)(F)C(F)F)cc1)N1CC(c2ccccc2)C(c2ccc(OC(F)F)cc2)=N1 (centres undefined) | 132 to 135 |
| Cc1ccc(C)n1CCNC(N)=O | 139 to 141 |
| CN(C)CCc1cn(C)c2c(F)ccc(OCc3ccccc3)c12 | 60 to 62 |
| Cc1ncsc1C(O)c1cccc(N)c1 (centres undefined) | 137 to 138 |
| CCOC(=O)NC1CCN(c2ncnc3cc(OC)c(OC)cc23)CC1 | 179 to 181 |
| CC(=O)c1c(Br)[nH]c(-c2ccncc2)c1C | 205 to 206 |
| COc1cc(Br)c(S(C)(=O)=O)cc1C(=O)O | 225 to 258 |
| COc1ccc(CN(C)C)cc1CO | 67 to 69 |
| Cc1cc2oc(S(=O)(=O)N=CN(C)C)cc2cn1 | 175 to 177 |
| COC(=O)CN(CCNC(=O)OC(C)(C)C)C(=O)Cc1cc2c(C)ccnc2[nH]c1=O | 175 to 177 |
| CC(=O)OC1CSC(Oc2cnc(-c3ccccc3)c(F)c2)C(OC(C)=O)C1OC(C)=O (centres undefined) | 160 to 162 |
| O=C(O)CCCCCN1CCCCC1 | 74 to 76 |
| CCCCS(=O)c1ccc(C=O)nc1 (centres undefined) | 90 to 91 |
| COCC(=O)OC1(C(=O)COC(=O)C(C)C)CCC2C3CC(C)C4=CC(=O)C=CC4(C)C3C(O)CC21C (centres undefined) | 148 to 150 |
| c1cn2nc(N3CCOCC3)c3c(c2n1)CCCC3 | 160 to 161 |
| CCOC(=O)C1=C[C@@H](OC(CC)CC)[C@@H](NC(C)=O)[C@H](N=[N+]=[N-])[C@@H]1OS(C)(=O)=O | 96 to 98 |
| c1ccc2[nH]c(C34CC5CC(CC(C5)C3)C4)cc2c1 | 48 |

Second part, the molecule after the results:

| melting point [°C] | Structure (SMILES) |
| --- | --- |
| 166 to 167 | CCn1c(=O)n(OCc2ccccc2)c(=O)c2cc(F)c(N3CCNCC3)cc21 |
| 130 to 133 | N#Cc1ccc(CCn2ccn([C@H]3CCc4c(F)cc(F)cc4C3)c2=S)cc1 |
| 106 to 107 | CCC(=O)O[C@@H]1[C@@H](c2ccccc2)Nc2c(ccn3c(C)c(C)nc23)[C@H]1OCCOC |
| 214 to 216 | COc1cc(C(F)(F)F)cc(OC)c1-c1csc(NC(=O)c2cc3ccccc3n2CC(=O)OC(C)(C)C)n1 |
| 122 | COCCc1nc2c(N)nc3ccccc3c2n1CCOCCN(C)C(=O)N1CCOCC1 |
| 123 to 126 | Oc1ccccc1C=NC1CCOc2ccccc21 (centres undefined) |
| 110 to 112 | CN(C)c1cccc(C(=O)N2CCN(CCc3ccc(Cl)cc3)CC2)c1 |
| 144 to 146 | COC(=O)c1cc(-c2ccc(S(C)(=O)=O)cc2)n(-c2ccc(F)cc2)c1 |
| 156 to 158 | CC(Oc1ncn(-c2cccc(F)c2)n1)C(N)=O (centres undefined) |
| 83.5 to 85.5 | Brc1cc2c(nc1-c1ccccc1)OCC2 |
| 156 to 157 | CC(O)c1cn(C(c2ccccc2)(c2ccccc2)c2ccccc2)cn1 (centres undefined) |
| 58 to 60 | Clc1cccc2c1ccn2Cc1ccccc1 |
| 120 to 123 | COc1ccc(NN=C(Sc2ccccc2)C(C)=O)cc1 |
| 180 | COc1cccn2c(=O)c(CCOS(C)(=O)=O)c(C)nc12 |
| 290 to 291 | Cc1ccc2c(c1NC(=O)CC1c3ccccc3Oc3ccccc31)OC(C)C2 (centres undefined) |
| 136 to 140 | COc1cc(Br)ccc1C(C)CC(=O)C(=O)Nc1ccc2c(c1)COC2=O (centres undefined) |
| 162 to 165 | CC(=O)Nc1nc(CCc2ccc(CO)cc2)cs1 |
| 80 to 82 | CN(Cc1ccccc1)c1cc(Oc2cccc(C(F)(F)F)c2)nc(C(=O)O)c1 |
| 127 to 130 | COc1ccc(Cn2cnc3c(-c4ccco4)nc(C)nc32)cc1 |
| 203 to 204 | O=C(Nc1ccc(Oc2ccccc2)cc1)N1CCN(c2cc(C(F)(F)F)nc3ccccc23)CC1 |
| 203 to 204 | Nc1cc(-c2nc(-c3ccco3)no2)ccc1Cl |
| 224 to 226 | Cc1nn(-c2ccccn2)c2ncc(C(=O)c3ccccc3)c(O)c12 |
| 282 to 285 | COc1cc2ncc(C(=O)O)c(Nc3cccc(Br)c3)c2cc1OC |
| 169 to 171 | COC(=O)c1cc(-c2ccc(S(C)(=O)=O)cc2)n(-c2ccc(Cl)cc2)n1 |
| 119 | COc1ncccc1-c1ccc(Cl)c(OC2SCC(O)C(O)C2O)c1 (centres undefined) |
| 86 to 89 | COC1c2c(c(C)nn2-c2ccccn2)C(=O)CC1(C)C (centres undefined) |
| 133 to 134 | CCCc1c(OCCCOc2ccc(Cl)cc2)ccc2c1OC(CCC(=O)O)(CCC(=O)O)CC2=O |

Reference: a melting point compilation (Tetko et al.; mined from patent text by program, amines drawn as free bases though some values may be those of a salt)
